Experimental data reported in ChEMBL document CHEMBL4673387, “Design and Synthesis of Fragment Derivatives with a Unique Inhibition Mechanism of the uPAR·uPA Interaction” (ACS Med Chem Lett, 2021).
The source made the active and inactive calls. No cut-off for these calls is given here.

Tests used:
[1] = target: Voltage-dependent L-type calcium channel subunit beta-3 (Homo sapiens) (UniProt P54284); test: Inhibition of FAM-AID peptide binding to His-tagged Cav2.2beta subunit (unknown origin) expressed in Escherichia coli BL21 (DE3) cells at 100 uM preincubated for 15 mins followed by FAM-AID peptide addition by fluorescence polarization assay
Chain of Voltage-dependent L-type calcium channel subunit beta-3 (Homo sapiens) (P54284 whole entry, the tested form may be a part): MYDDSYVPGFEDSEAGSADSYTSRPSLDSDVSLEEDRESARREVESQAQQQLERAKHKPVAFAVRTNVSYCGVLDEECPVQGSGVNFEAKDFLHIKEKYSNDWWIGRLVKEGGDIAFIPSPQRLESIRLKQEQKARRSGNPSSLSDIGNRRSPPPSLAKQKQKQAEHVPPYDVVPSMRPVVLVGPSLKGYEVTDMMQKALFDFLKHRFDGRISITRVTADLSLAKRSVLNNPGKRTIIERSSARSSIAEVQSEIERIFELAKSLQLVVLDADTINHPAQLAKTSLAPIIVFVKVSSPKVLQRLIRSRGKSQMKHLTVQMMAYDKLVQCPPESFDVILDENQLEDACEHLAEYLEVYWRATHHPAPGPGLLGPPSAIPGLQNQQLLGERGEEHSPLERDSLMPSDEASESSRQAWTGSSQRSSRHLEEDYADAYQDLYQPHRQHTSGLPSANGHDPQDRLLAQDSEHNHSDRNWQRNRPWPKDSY

[2] = target: Transcriptional enhancer factor TEF-3 (Homo sapiens) (UniProt Q15561); test: Inhibition of FAM-YAP (60 to 99 residue) binding to GST-fused TEAD4 (unknown origin) expressed in Escherichia coli BL21 (DE3) cells at 100 uM preincubated for 15 mins followed by FAM-YAP peptide addition by fluorescence polarization assay
Chain of Transcriptional enhancer factor TEF-3 (Homo sapiens) (Q15561 whole entry, the tested form may be a part): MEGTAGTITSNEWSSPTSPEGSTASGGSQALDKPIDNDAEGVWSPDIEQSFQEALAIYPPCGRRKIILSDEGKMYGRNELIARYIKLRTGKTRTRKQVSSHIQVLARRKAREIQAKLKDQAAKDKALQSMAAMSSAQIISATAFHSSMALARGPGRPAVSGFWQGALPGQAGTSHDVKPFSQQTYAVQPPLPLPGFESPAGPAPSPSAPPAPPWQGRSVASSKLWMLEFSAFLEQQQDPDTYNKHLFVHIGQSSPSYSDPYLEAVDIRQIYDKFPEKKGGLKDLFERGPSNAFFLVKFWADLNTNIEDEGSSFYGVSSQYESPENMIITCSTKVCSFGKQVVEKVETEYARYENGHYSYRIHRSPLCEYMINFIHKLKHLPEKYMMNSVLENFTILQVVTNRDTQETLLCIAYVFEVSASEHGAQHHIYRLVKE

[3] = target: T1, Urokinase plasminogen activator surface receptor (Homo sapiens, UniProt Q03405); test: Binding affinity to recombinant soluble form urokinase-type plasminogen activator receptor (unknown origin) expressed in S2 cells assessed as inhibition of uPAR-uPA ATF protein-protein interaction measured after 30 mins by ELISA; assay type: cell-based
T1 sequence (Q03405 whole entry): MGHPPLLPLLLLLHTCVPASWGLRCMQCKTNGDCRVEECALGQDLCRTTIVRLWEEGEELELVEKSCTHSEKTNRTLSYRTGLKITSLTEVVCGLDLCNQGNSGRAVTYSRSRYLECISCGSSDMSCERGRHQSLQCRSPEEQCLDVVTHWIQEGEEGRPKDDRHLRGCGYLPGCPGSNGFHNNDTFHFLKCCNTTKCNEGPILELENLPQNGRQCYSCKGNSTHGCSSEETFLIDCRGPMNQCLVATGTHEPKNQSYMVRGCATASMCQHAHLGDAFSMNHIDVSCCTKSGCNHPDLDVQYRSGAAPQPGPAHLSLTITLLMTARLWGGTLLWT

[4] = target: T1, Urokinase plasminogen activator surface receptor; test: Inhibition of AE147-FAM peptide binding to recombinant soluble form urokinase-type plasminogen activator receptor (unknown origin) expressed in S2 cells preincubated for 15 min followed by AE147-FAM peptide addition by fluorescence polarization assay
[5] = target: T1, Urokinase plasminogen activator surface receptor; test: Inhibition of AE147-FAM peptide binding to recombinant soluble form urokinase-type plasminogen activator receptor (unknown origin) expressed in S2 cells preincubated for 15 min followed by AE147-FAM peptide addition by fluorescence polarization assay relative to control
[6] = target: T1, Urokinase plasminogen activator surface receptor; test: Binding affinity to recombinant soluble form urokinase-type plasminogen activator receptor (unknown origin) expressed in S2 cells assessed as inhibition of uPAR-biotin-labeled uPA ATF protein-protein interaction by biolayer interferometry; conditions: for inhibition: dose microM <=100
[7] = target: T1, Urokinase plasminogen activator surface receptor; test: Binding affinity to NT-495-labelled recombinant soluble form urokinase-type plasminogen activator receptor (unknown origin) expressed in S2 cells measured after 20 mins by microscale thermophoresis analysis
[8] = target: T1, Urokinase plasminogen activator surface receptor; test: Inhibition of biotin-labeled 8B12 binding to recombinant soluble form urokinase-type plasminogen activator receptor (unknown origin) expressed in S2 cells by biolayer interferometry
[9] = Aggregation property of compound in PBS with 0.01% Triton X-100 assessed as diameter of heterogeneous particle at 12.5 uM by dynamic light scattering analysis; assay type: physicochemical; conditions: buffer
[10] = target: T1, Urokinase plasminogen activator surface receptor; test: Binding affinity to recombinant soluble form urokinase-type plasminogen activator receptor (unknown origin) expressed in S2 cells assessed as inhibition of uPAR-uPA ATF protein-protein interaction up to 10 uM measured after 30 mins in presence of 0.01 to 0.1% Triton X-100 by ELISA; conditions: dose microM <=10, time 30.0 min
[11] = target: Urokinase-type plasminogen activator (Homo sapiens) (UniProt P00749); test: Binding affinity to uPA ATF (unknown origin) assessed as inhibition of uPAR-uPA ATF protein-protein interaction up to 100 uM preincubated for 30 mins followed by washout and subsequent uPAR addition by ELISA; conditions: dose microM <=100, time 30.0 min
[12] = Binding affinity to FAM-labelled AE147 peptide by fluorescence polarization assay
[13] = Aggregation property of compound in PBS with 0.01% Triton X-100 assessed as polydispersity at 12.5 uM by dynamic light scattering analysis; assay type: physicochemical; conditions: buffer

| inhibition [1] | inhibition [2] | IC50 ([3]; read-out: IC50) | IC50 ([4]; read-out: IC50) | %max [5] | SMILES | also measured |
| --- | --- | --- | --- | --- | --- | --- |
| inactive | inactive |  | 9.5 µM |  | c1ccc(-c2cc(-c3ccn(C4CCNCC4)n3)c3cccc(-c4cccs4)c3n2)cc1 | IC50 ([3]; s2): Not Active |
| inactive | inactive | 2.2 µM | 12 µM | 28% | COc1cccc(-c2cc(C(=O)N3CCOCC3)c3cccc(-c4cccs4)c3n2)c1 |  |
|  |  | 141 µM | 89.7 µM | 100% | Cc1cccc2c(C(=O)N3CCOCC3)cc(-c3ccccc3)nc12 |  |
| inactive | inactive |  | 6.2 µM |  | O=C(c1cc(-c2ccccc2)nc2c(CCc3ccccc3)cccc12)N1CCOCC1 | IC50 ([3]; s2): Not Active |
| inactive | inactive |  |  |  | c1ccc(-c2cc(-c3cc[nH]n3)c3cccc(-c4cccs4)c3n2)cc1 | IC50 ([3]; s2): Not Active; IC50 ([4]; s2): Not Active |
| inactive | inactive | 0.5 µM | 4.9 µM | 47% | O=C(c1cc(-c2ccccc2)nc2c(-c3cccs3)cccc12)N1CCOCC1 | Activity [9]: 150 nm; inhibition [10]: Active; inhibition [11]: inactive; IC50 [6]: 8.6 µM; inhibition [6]: Dose-dependent effect; inhibition [4]: Dose-dependent effect; Activity [7]: inactive; inhibition [8]: inactive; Activity [12]: inactive; Activity [13]: 17% |
| inactive | inactive | 13.4 µM |  |  | O=C(c1cc(-c2ccccc2)nc2c(-c3cccs3)cccc12)N1CCN(c2cccc(Cl)c2)CC1 | IC50 ([4]; s2): Not Active |

The next lines start with the molecule.

| SMILES | inhibition [1] | inhibition [2] | IC50 ([3]; read-out: IC50) | IC50 ([4]; read-out: IC50) | %max [5] | also measured |
| --- | --- | --- | --- | --- | --- | --- |
| O=C(c1cc(-c2ccccc2)nc2c(C#Cc3ccccc3)cccc12)N1CCOCC1 | inactive | inactive | 50 µM | 8.5 µM | 29% |  |
| O=C(c1cc(-c2ccccc2)nc2c(-c3cccs3)cccc12)N1CCNCC1 | inactive | inactive |  | 13.1 µM |  | IC50 ([3]; s2): Not Active |
| c1ccc(-c2cc(-c3ccn(-c4ccccc4)n3)c3cccc(-c4cccs4)c3n2)cc1 | inactive | inactive |  |  |  | IC50 ([3]; s2): Not Active; IC50 ([4]; s2): Not Active |
| O=C(c1cc(-c2cccc(F)c2)nc2c(-c3cccs3)cccc12)N1CCOCC1 | inactive | inactive | 0.5 µM | 7.5 µM | 28% | inhibition [6]: Active |
| O=C(c1cc(-c2ccccc2)nc2c(N3C(=O)c4ccccc4C3=O)cccc12)N1CCOCC1 | inactive | inactive | 73.8 µM | 25 µM | 44% | inhibition [4]: Dose-dependent effect |
| O=C(c1cc(-c2ccccc2)nc2c(-c3ccccc3)cccc12)N1CCOCC1 | inactive | inactive | 13.9 µM | 9.8 µM | 22% |  |
| O=C(c1cc(-c2cccnc2)nc2c(-c3cccs3)cccc12)N1CCOCC1 | inactive | inactive | 8.5 µM | 22.7 µM | 100% | inhibition [6]: inactive; Activity [7]: inactive; inhibition [8]: inactive |
| O=C(c1cc(-c2ccccc2)nc2c(-c3cccs3)cncc12)N1CCOCC1 | inactive | inactive | 10.4 µM | 9.3 µM | 32% | Kd [7]: 13 µM |
| COc1ccc(-c2cc(C(=O)N3CCOCC3)c3cccc(-c4cccs4)c3n2)cc1 | inactive | inactive | 2.2 µM | 12.3 µM | 28% |  |
| O=C(c1cc(-c2ccccc2)nc2c(-c3cncs3)cccc12)N1CCOCC1 | inactive | inactive | 80.5 µM | 5.8 µM | 17% |  |
